In patent US5565330A, “Method for removing N-terminal dipeptides from precursor polypeptides with dipeptidylaminopeptidase from Dictyostelium discoideum” (Eli Lilly and Company, priority 1995, dated 1996):

Key:
bovine spleen DAP-I = biological target: T1, bovine spleen DAP-I (Bos taurus, UniProt Q3ZCJ8); assay: Inhibition of GFpNA cleavage by sulfhydryl modifying agents; format: biochemical; settings: 5 mM inhibitor, 15 minutes at room temperature, pH 7; then 4 mM GFpNA, pH 3.5, 37 degrees; read-out: decrease (inhibition) of bovine DAP-I's rate of cleavage of GFpNA
T1 construct: bovine spleen DAP-I; from tissue; host or cells: bovine spleen
T1 sequence (Q3ZCJ8 231-394 limits assumed): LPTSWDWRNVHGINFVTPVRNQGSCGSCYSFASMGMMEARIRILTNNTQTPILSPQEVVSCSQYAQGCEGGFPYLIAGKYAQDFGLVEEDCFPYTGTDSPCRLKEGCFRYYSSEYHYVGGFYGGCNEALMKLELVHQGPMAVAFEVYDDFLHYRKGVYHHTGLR
T1 sequence (Q3ZCJ8 395-463 limits assumed): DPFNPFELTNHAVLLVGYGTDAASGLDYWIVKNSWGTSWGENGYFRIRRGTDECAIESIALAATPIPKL
T1 sequence (Q3ZCJ8 25-143 limits assumed): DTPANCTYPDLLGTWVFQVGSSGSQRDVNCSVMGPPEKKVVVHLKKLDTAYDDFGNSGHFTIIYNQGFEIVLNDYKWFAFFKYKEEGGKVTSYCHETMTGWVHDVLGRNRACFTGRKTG
Experimental: (§1) dDAP activity is normally monitored by following the cleavage of the chromogenic substrate Gly-Phe para-nitroanilide (GF-pNA). Typically the assay is performed by diluting the enzyme 11 fold into 1.0 ml of 4 mM GFpNA adjusted to pH 3.5. The rate of cleavage of GF dipeptide was monitored at 37° C. by measuring the increase in absorbance at 405 nm. One unit of activity leads to a 0.90 OD change per minute under these conditions. Unit/ml estimates can be made assuming an extinction coefficient for free pNA of 9.9 mM-1 cm-1 at 405 nm.
(§2) The inhibition profile of dDAP toward the substrate GFpNA was compared to that of bovine DAP-I using iodoacetamide and potassium tetrathionate, sulfhydryl modifying agents known to inhibit the activity of DAP-I. Samples of dDAP or bovine spleen DAP-I were incubated for 15 minutes at room temperature in final concentrations of 0, 0.5, 5.0 or 50 mM of either inhibitor at pH 7 in 100 mM Tris buffer. The incubated solutions were then diluted 21-fold with 4 mM GFpNA, pH 3.5. The rate of cleavage was monitored by measuring the increase in absorbance at 405 nm at 37 degrees centigrade. Bovine DAP-I's rate of cleavage of GFpNA was decreased more than 90% by the exposure to 5 mM iodoacetamide and was 95% inhibited by 5 mM potassium tetrathionate.

dDAP = assay: as above; format: biochemical, Dictyostelium discoideum; settings: 0.5, 5.0 or 50 mM inhibitor, 15 minutes at room temperature, pH 7; then 4 mM GFpNA, pH 3.5
Experimental: as §1, §2

[1] = Cleavage of Arg-Arg-β-naphthylamide (fluorescence); format: biochemical; settings: 0.25 mM RR-BNA, pH 3.5 or pH 5.0, about 15 milliunit/ml enzyme
Experimental: (§3) About 0.25 mM RR-BNA or 0.25 mM Benzyloxycarbonyl-RR-BNA (Z-RR-BNA) was prepared in either 100 mM acetic acid, pH 3.5, or 100 mM citrate buffer, pH 5.0. To 2 ml of substrate was added dDAP or bovine DAP-I (about 15 milliunit/ml solution). Rates of cleavage (monitoring fluorescence increase at 410 nm with excitation at 340 nm) were monitored. […] The pH optimum for cleavage of RR-BNA was probed by monitoring the rate of RR-BNA cleavage using a buffer system consisting of 50 mM acetic acid and 50 mM citrate. Various pHs were achieved using HCl or NaOH and 1.5 ml volumes were made 2.0 with 0.5 ml of a 1 mM stock solution of RR-BNA (final concentration of about 0.25 mM). dDAP was added (to about 15 mU/ml) and the rates of cleavage were determined.

[2] = Cleavage of blocked Benzyloxycarbonyl-RR-BNA (fluorescence); format: biochemical; settings: 0.25 mM Z-RR-BNA, pH 3.5 or pH 5.0
Experimental: as §3

Met(O)-Arg-hPI = assay: Conversion of oxidized methionyl Met(O)-Arg-hPI (HPLC); format: biochemical, human; settings: X is Arg, Phe and Tyr
Experimental: Met-Arg-Human Proinsulin (Met-Arg-hPI) was produced as an insoluble protein in the cytoplasm of E. coli. The insoluble protein was solubilized in 7M urea. The protein was purified by ion exchange chromatography. The Met-Arg-hPI was sulfitolyzed, solvent exchanged and folded in order to form the native disulfide bond pairs and native tertiary structure. The material was further purified using reverse phase chromatography.
The Met-Arg-hPI was about 24 mg/ml (in approximately 20 mM glycine buffer, pH 3.5). About 2.4 mg of this material was incubated with 0.19 milliunits of dDAP at pH 3.5. The reaction was allowed to proceed at room temperature. Periodically, aliquots were removed and diluted with 10% phosphoric acid. This material was injected onto a neutral reverse phase HPLC system to monitor for the disappearance of Met-Arg-hPI or Met(O)-Arg-hPI and the subsequent production of hPI. In addition, aliquots were diluted into an appropriate diluent to allow for HPLC monitoring of appearance of either the Met-Arg or Met(O)-Arg dipeptides. Approximately 60% of the Met-Arg-hPI was converted to hPI in 8 hours. […] The rate of cleavage of both substrates was similar. […] The ability of dDAP to cleave the oxidized Met(O)-X substrate has distinct processing advantages over enzymes unable to perform this cleavage.

Row | Compound | inhibition at 5000 µM (bovine spleen DAP-I) | inhibition of dDAP cleavage of GFpNA (dDAP) | cleavage of RR-BNA [1] | cleavage of blocked amino group Z-RR-BNA [2] | cleavage of Met(O)-X-derivatives of hPI (Met(O)-Arg-hPI)
1 | NC(=O)CI [iodoacetamide] | > 90% | no evidence of significant inhibition |  |  | 
2 | O=S(=O)([O-])SSS(=O)(=O)[O-].[K+].[K+] [potassium tetrathionate] | 95% | no evidence of significant inhibition |  |  | 
3 | bovine DAP-I: bovine spleen dipeptidylaminopeptidase I, comparison enzyme |  |  | unable to cleave | unable to cleave | unable to cleave
